Laboratory results: US20070110817A1, “Biological active blood serum obtained by electrostimulation” (Owen Holding Ltd., priority 2004, published 2007)

Test system: rats
Assay: Escape reaction latency after zytisin with or without serum
Format: in vivo, rat
Method: During the formation and the long-term maintenance of information a significant role is attributed to H-cholino-ceptive mechanisms. 30 animals who were taught for five days how to dive under a “bell” were subdivided into three groups.
A physiological solution of zytisin (a H-cholino-ceptive antagonist of the brain) was injected with a dose of 1 mg/kg body weight into the peritoneal cavity 30 minutes prior to the test of the animals of the first group (ten rats).
Biologically active serum was administered in a dose of 100 mg/kg body weight to the animals of the second group (ten rats) and 30 minutes later a zytisin solution was administered with a dose of 1 mg/kg body weight.
The third animal group (control—ten rats) received a 1 ml injection of a physiological salt solution.
The complex behaviour of the animals was tested according to above-indicated method 48 hours after the injection of the indicated substances.

## O=c1cccc2n1C[C@@H]1CNC[C@H]2C1 [zytisin]
48 hours after zytisin 1 mg/kg
  slowing of the “escape reaction” in comparison to control animals: 3 fold
After 48 h, zytisin 1 mg/kg, serum 100 mg/kg 30 minutes before zytisin, control 13.33 ± 0.58
  Latency period for the reaction of rats to the situation: 40.0 ± 14 s
